Assays:
[1] = test system: class B β-lactamases (L1 metallo-β-lactamase derived from Stenotrophomonas maltophilia; metallo-β-lactamase derived from Bacillus cereus); test: β-lactamase inhibition (IC50, nitrocefin hydrolysis) against class B metallo-β-lactamases; format: biochemical; conditions: 4 min incubation of inhibitor and enzyme, substrate nitrocefin, 480 nm; statement in words summarising Table 1
Experimental: (§1) Representative compounds of the invention were evaluated as inhibitors of two serine β-lactamases: Enterobacter cloacae P99 (class C), TEM-1 (class A), as well as two class B enzymes: the L1 metallo-β-lactamse derived from Stenotrophomonas maltophilia) and the metallo-β-lactamase derived from the Bacillus cereus microorganism. The IC50 value of each compound was determined as follows. Assay method involves 4 min incubation of a solution of inhibitor and enzyme (0.1 to 1 μM in enzyme), followed by transfer of an aliquot into a dilute solution of the substrate nitrocefin. Hydrolysis is monitored spectrophotometrically at 480 nm for 1 min. The rate is constant throughout this period. Error is ±10%, based on multiple experiments.

[2] = molecular target: Enterobacter cloacae P99 (class C) β-lactamase (Enterobacter cloacae, UniProt P05364); test: β-lactamase inhibition (IC50, nitrocefin hydrolysis) against class C serine β-lactamase; format: biochemical; conditions: 4 min incubation of inhibitor and enzyme, substrate nitrocefin, 480 nm; comparison in words summarising Table 1
Experimental: as §1

Enterobacter cloacae P99 (class C) β-lactamase, sequence (P05364 21-381): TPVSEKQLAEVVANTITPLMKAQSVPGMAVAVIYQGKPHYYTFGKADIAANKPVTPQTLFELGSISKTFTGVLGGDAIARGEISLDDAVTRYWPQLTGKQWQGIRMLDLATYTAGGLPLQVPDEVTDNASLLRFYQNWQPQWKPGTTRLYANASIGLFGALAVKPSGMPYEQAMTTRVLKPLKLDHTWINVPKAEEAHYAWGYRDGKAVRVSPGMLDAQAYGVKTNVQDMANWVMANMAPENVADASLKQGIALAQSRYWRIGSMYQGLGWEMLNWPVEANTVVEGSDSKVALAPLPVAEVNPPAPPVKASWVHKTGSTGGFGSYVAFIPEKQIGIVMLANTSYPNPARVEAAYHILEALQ

Structure (SMILES) | ability to inhibit the class B β-lactamases [1] | inhibition activity against a representative class C β-lactamase relative to tazobactam [2]
CC(=O)OCC1=C(C(=O)[O-])N2C(=O)C(CS)C2SC1.[Na+] (stereo not drawn) [Compound 12, Sodium salt of 7β-(mercaptomethyl)cephalosporanate] | possess the ability to inhibit the class B β-lactamases | 
CC(=O)OCC1=C(C(=O)[O-])N2C(=O)C(CS)C2S(=O)(=O)C1.[Na+] (stereo not drawn) [Compound 15, Sodium salt of 7β-(mercaptomethyl)cephalosporanate-1,1-dioxide] | possess the ability to inhibit the class B β-lactamases | 
CC(=O)OCC1=C(C(=O)[O-])N2C(=O)C(CS)C2[S+]([O-])C1.[Na+] (stereo not drawn) [Compound 17, Sodium salt of 7β-(mercaptomethyl)cephalosporanate-1β-oxide] | possess the ability to inhibit the class B β-lactamases | 
CC(=O)OCC1=C(C(=O)[O-])N2C(=O)C(CS)C2[S+]([O-])C1.[Na+] (stereo not drawn) [Compound 19, Sodium salt of 7α-(mercaptomethyl)cephalosporanate-1β-oxide] | possess the ability to inhibit the class B β-lactamases | 
CC(=O)OCC1=C(C(=O)[O-])N2C(=O)C(CS)C2S(=O)(=O)C1.[Na+] (stereo not drawn) [Compound 22, Sodium salt of 7α-(mercaptomethyl)cephalosporanate-1,1-dioxide] | possess the ability to inhibit the class B β-lactamases | superior to tazobactam
CC(=O)OCC1=C(C(=O)[O-])N2C(=O)C(CS)C2SC1.[Na+] (stereo not drawn) [Compound 26, Sodium salt of 7α-(mercaptomethyl)cephalosporanate] | possess the ability to inhibit the class B β-lactamases | superior to tazobactam
CC(=O)OCC1=C(C(=O)[O-])N2C(=O)C(CS)C2[S+]([O-])C1.[Na+] (stereo not drawn) [Compound 29, Sodium salt of 7α-(mercaptomethyl)cephalosporanate-1α-oxide] | possess the ability to inhibit the class B β-lactamases | superior to tazobactam
C[C@]1(Cn2ccnn2)[C@H](C(=O)O)N2C(=O)C[C@H]2S1(=O)=O [tazobactam, reference compound] | does not possess such ability | 
